Test results from patent publication US9908897B2, “Spirocyclic derivatives” (CHRONOS THERAPEUTICS LIMITED, priority 2014, dated 2018).

How the values were obtained:
[1] = molecular target: human dopamine transporter (DAT) (Homo sapiens (Human), UniProt Q01959); test: Scintillation Proximity Assay (SPA) competition binding, human DAT; settings: recombinant hDAT-CHO membranes, [3H]WIN-35,428
Description: (§1) Measure of Affinity to the Human Transporters DAT, NET and SERT
In the context of the present invention pKi values (corresponding to the antilogarithm of Ki) are used instead of Ki; pKi are only estimated to be accurate to about 0.3 log unit.
(§2) Scintillation Proximity Assay (SPA) for Human DAT, NET and SERT Binding
(§3) Chinese Hamster Ovary (CHO) cells stably expressing either human DAT (hDAT-CHO) or human NET (hNET-CHO) or human SERT (hSERT-CHO) are used for the membrane preparations for radioligand binding assays using Scintillation proximity Assay (SPA) technique. Each cell line is cultured independently in F-12K Nutrient Mixture containing 10% of Fetal Bovine Serum (FBS) supplemented with 450 μg/ml G-418. When cells are at 70-80% of confluence 3 mM Na Butyrate was added to the cell culture medium. After 24 h of incubation, the culture medium was removed and the cells detached with Versene (DAT) or by scraping (NET and SERT). Cell suspension is centrifuged at 41,000 g for 10 minutes at 4° C. The resultant pellets are re-suspended in 15 volumes of Ice-cold buffer (20 mM HEPES, 145 mM NaCl, 5 mM KCl, pH7.3), homogenized using an Ultra Turrax homogeniser and centrifuged as before. The resultant membrane pellets are re-suspended in up to 15 volume of ice-cold buffer, incubated for 20 minutes at 37-C and centrifuged as before at 41,000 g. The final membrane pellets are re-suspended into 5-10 volumes of ice-cold buffer, dispensed into 0.5 ml aliquots and stored at −80° C. until use. Protein concentration for each preparation is determined using Bio-Rad Protein Assay kit.
(§4) The affinity of the compounds of the invention to the human DAT or NET or SERT transporters is assessed by using the [^3H]WIN-35,428 or [^3H]nisoxetine or [^3H]citalopram binding assays in recombinant human DAT, NET and SERT membranes with the SPA technology. The final assay volume is 50 μL in 384 well plates.
(§5) Briefly, 0.5 μL of test compound in neat DMSO or 0.5 μL of DMSO for total binding (TB) or 0.5 μL of indatraline 1 mM (10 μM final concentration) for non specific binding (NSB) are added to the assay plate. 50 μL of the SPA mixture is added to each well, containing: 30 μg/mL or 10 μg/mL or 25 μg/mL DAT, NET, SERT membranes, respectively; 5 nM [^3H]WIN-35,428 or 5 nM [^3H]nisoxetine or 1 nM [^3H]citalopram, for DAT, NET, SERT assay, respectively; 2.5 mg/mL or 1 mg/mL or 4 mg/mL WGA-PVT SPA beads (PerkinElmer RPNQ0001, for DAT, NET, SERT assay, respectively. All components are added to Assay Buffer (20 mM HEPES pH 7.4, 145 mM NaCl, 5 mM KCl, 0.01% Pluronic F-127). 0.02% BSA was used for DAT binding only. Plates are sealed with Topseal A and centrifuged 1 min, 800 rpm. Plates are loaded into a 1450 Microbeta TriLux (Perkin-Elmer) plate reader and the radioactivity counted after at least 4 hrs or overnight incubation at room temperature. Curve fitting and IC50 estimations are performed using a four parameter model in XLfit (IDBS, Guilford, UK) for Microdoft Excel (Microsoft, Redmond, Wash.).

[2] = molecular target: human norepinephrine transporter (NET) (Homo sapiens (Human), UniProt P23975); test: Scintillation Proximity Assay (SPA) competition binding, human NET; settings: recombinant hNET-CHO membranes, [3H]nisoxetine
Description: as §1
(§6) Affinity is expressed in terms of inhibition constant (Ki) of the compounds of the invention for DAT, NET and SERT, and it is typically calculated from the IC50 values obtained in competition experiments using Cheng and Prusoff equation (Cheng and Prusoff, Biochem. Pharmacol. 22:3099, 1973). In the context of the present invention pKi values (corresponding to the antilogarithm of Ki) are used instead of Ki; pKi are only estimated to be accurate to about 0.3 log unit.
as §2, §3, §4, §5

[3] = molecular target: human serotonin transporter (SERT) (Homo sapiens (Human), UniProt P31645); test: Scintillation Proximity Assay (SPA) competition binding, human SERT; settings: recombinant hSERT-CHO membranes, [3H]citalopram
Description: as §1, §6, §2, §3, §4, §5

[4] = molecular target: human ERG potassium channel (hERG) (Homo sapiens (Human), UniProt Q12809); test: hERG tail current recording, Rapid ICE automated patch-clamp; format: cell-based; settings: HEK293 cells stably transfected with hERG
Method: Measure of the Effect on hERG Channel by Tail Current Recording Using In Vitro Rapid ICE™
The potency of the compounds of the invention in inhibiting human ERG potassium channel (hERG) tail current is assessed in a recombinant HEK293 cell line stably transfected with hERG cDNA using Rapid ICE™ (Rapid Ion Channel Electrophysiology) assay. Rapid ICE™ is an automated patch-clamp assay utilizing the PatchXpress 7000A system (Molecular Devices Corporation) or the QPatch HTX system (Sophion Bioscience A/S).
Briefly cells are cultivated for 24 to 72 hours before recordings in minimum essential medium supplemented with 10% FBS, 1% non-essential amino acids, 1% sodium pyruvate, 2 mM L-glutamine. The day of the experiment cells are detached with TrypLE and prepared to be loaded on the instrument. For PatchXpress cells are finally resuspended in 150 μl of Extracellular Buffer whereas for QPatch cells are resuspended in 7 ml Serum-Free Media containing 25 mM Hepes and Soybean trypsin inhibitor and immediately placed in the cell storage tank of the machine. The composition of the Extracellular Buffer is (mM): NaCl 137; KCl 4; CaCl2 1.8; MgCl2 1.0; D-glucose 10; N 2 hydroxyethylpiperazine-N′-2-ethanesulfonic acid (HEPES) 10; pH 7.4 with 1 M NaOH. The composition of the pipette solution is (mM): KCl 130; MgCl2 1.0; Ethylene glycol-bis(β-aminoethyl ether)-N,N,N′,N′-tetraacetic acid (EGTA) 5; MgATP 5; HEPES 10; pH 7.2 with 1 M KOH. The voltage protocol includes the following steps: step from −80 mV to −50 mV for 200 ms, +20 mV for 4.8 s, step to −50 mV for 5 s then step to the holding potential of −80 mV. Compounds of the invention are dissolved in DMSO and diluted in Extracellular Buffer to achieve final test concentrations (0.1, 1 and 10 μM) in 0.1% DMSO. The voltage protocol is run and recorded continuously during the experiment. The vehicle, corresponding to 0.1% DMSO in Extracellular Buffer, is then applied for 3 min followed by the test substance in triplicate. The standard combined exposure time is 5 min. The average of tail current amplitude values recorded from 4 sequential voltage pulses is used to calculate for each cell the effect of the test substance by calculating the residual current (% control) compared with vehicle pre-treatment. Data are reported as % inhibition for each concentration tested and IC50 values are estimated using DataXpress or QPatch software. At least two cells are tested, more if results diverge.

Chain of human dopamine transporter (DAT) (Q01959 whole entry): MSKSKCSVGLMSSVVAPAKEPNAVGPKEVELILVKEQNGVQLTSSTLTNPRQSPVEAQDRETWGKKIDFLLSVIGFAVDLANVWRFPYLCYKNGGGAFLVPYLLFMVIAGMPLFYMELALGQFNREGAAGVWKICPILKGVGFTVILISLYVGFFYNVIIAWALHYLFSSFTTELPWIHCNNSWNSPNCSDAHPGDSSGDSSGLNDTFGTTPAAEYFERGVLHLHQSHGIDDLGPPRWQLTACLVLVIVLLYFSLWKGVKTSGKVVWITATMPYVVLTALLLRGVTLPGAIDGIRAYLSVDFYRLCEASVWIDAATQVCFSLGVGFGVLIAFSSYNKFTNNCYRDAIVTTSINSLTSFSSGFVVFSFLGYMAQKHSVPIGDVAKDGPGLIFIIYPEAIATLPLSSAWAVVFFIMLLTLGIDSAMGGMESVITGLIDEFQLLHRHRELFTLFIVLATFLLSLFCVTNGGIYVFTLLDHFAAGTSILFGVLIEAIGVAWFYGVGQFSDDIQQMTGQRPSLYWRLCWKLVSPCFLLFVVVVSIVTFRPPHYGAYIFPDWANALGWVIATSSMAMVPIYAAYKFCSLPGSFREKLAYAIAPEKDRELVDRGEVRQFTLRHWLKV
Chain of human norepinephrine transporter (NET) (P23975 whole entry): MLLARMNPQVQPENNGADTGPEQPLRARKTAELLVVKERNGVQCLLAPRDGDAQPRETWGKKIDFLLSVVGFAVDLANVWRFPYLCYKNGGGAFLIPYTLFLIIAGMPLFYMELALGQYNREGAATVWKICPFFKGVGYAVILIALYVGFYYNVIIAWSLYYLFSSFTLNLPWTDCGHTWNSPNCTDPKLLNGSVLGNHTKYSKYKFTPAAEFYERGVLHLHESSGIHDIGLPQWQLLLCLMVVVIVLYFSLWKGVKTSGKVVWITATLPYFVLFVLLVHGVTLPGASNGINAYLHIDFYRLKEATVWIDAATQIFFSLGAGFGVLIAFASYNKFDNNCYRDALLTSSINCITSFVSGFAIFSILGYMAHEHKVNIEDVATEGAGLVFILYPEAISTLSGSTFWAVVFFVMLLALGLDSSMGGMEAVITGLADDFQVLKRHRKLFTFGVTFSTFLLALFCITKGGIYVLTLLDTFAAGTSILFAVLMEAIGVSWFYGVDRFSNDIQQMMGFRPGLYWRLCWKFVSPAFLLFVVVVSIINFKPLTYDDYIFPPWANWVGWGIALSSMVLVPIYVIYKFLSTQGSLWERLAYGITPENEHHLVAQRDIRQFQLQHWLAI
Chain of human serotonin transporter (SERT) (P31645 whole entry): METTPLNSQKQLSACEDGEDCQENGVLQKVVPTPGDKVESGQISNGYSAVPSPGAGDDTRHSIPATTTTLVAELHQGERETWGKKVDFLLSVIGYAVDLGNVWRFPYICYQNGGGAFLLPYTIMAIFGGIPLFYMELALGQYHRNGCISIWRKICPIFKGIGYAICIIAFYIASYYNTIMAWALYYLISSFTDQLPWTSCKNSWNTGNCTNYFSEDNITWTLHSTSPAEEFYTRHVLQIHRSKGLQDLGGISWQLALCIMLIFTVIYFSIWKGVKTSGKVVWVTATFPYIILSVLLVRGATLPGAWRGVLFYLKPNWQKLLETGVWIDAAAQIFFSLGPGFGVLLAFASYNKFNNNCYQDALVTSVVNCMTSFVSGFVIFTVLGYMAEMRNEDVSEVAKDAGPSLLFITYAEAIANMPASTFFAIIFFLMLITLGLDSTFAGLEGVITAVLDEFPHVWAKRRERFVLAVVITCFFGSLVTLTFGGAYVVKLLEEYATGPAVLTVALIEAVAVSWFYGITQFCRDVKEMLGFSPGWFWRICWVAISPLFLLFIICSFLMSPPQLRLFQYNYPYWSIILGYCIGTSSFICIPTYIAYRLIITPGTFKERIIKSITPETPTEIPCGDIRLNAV
Chain of human ERG potassium channel (hERG) (Q12809 whole entry): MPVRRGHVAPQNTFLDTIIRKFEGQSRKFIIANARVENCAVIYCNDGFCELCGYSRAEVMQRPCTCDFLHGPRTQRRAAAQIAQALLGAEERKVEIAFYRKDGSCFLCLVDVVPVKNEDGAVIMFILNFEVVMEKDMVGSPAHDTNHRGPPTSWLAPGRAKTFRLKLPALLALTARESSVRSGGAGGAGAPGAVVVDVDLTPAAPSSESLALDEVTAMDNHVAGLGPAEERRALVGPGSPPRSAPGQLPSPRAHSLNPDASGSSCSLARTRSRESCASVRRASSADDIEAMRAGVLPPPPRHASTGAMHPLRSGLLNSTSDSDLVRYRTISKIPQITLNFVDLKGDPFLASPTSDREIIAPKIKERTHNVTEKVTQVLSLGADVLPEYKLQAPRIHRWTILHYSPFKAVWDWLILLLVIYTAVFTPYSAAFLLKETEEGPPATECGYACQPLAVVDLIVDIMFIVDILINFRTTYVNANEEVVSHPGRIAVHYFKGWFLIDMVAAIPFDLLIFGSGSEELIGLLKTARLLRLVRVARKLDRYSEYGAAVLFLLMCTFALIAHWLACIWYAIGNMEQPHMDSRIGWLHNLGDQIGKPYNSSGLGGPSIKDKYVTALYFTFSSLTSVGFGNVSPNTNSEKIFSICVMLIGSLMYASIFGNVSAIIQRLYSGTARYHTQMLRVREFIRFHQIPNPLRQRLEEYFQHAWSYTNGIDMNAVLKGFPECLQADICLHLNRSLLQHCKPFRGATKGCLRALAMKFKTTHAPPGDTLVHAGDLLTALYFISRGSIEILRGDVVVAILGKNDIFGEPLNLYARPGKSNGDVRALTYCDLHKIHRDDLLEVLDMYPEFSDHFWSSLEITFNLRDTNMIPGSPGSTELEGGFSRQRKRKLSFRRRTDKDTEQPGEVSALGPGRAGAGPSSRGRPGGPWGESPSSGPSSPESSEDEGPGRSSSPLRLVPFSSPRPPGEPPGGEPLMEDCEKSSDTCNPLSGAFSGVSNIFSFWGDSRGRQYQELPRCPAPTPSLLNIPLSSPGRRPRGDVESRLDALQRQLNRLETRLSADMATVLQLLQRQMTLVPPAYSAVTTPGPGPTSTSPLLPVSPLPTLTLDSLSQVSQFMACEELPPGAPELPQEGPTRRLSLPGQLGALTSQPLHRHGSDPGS

Row | Structure (SMILES) | pIC50 DAT [1] | pIC50 NET [2] | pIC50 SERT [3] | pIC50 hERG [4]
1 | Fc1cccc(Oc2cc(F)c(F)cc2N2CCC3(CC2)CNCCO3)c1 [Example 1, 9-[4,5-difluoro-2-(3-fluorophenoxy)phenyl]-1-oxa-4,9-diazaspiro[5.5]undecane] | 7.96 | 5.69 | 6.44 | 6.0
2 | Fc1cccc(Oc2ccccc2N2CCC3(CC2)CNCCO3)c1 [Example 4, 9-[2-(3-fluorophenoxy)phenyl]-1-oxa-4,9-diazaspiro[5.5]undecane] | 7.31 | 6.13 | 6.24 | 5.8
3 | N#Cc1ccc(Oc2ccccc2)c(N2CCC3(CC2)CNCCO3)c1 [Example 5, 3-{1-oxa-4,9-diazaspiro[5.5]undecan-9-yl}-4-phenoxybenzonitrile] | 6.82 | 6.19 | 7.63 | 6.2
4 | Fc1cccc(Oc2cccc(N3CCC4(CC3)CNCCO4)c2)c1 [Example 7, 9-[3-(3-fluorophenoxy)phenyl]-1-oxa-4,9-diazaspiro[5.5]undecane] | 7.54 | 6.33 | 5.99 | 5.8
5 | Fc1cccc(Oc2cc(F)cc(N3CCC4(CC3)CNCCO4)c2)c1 [Example 8, 9-[3-fluoro-5-(3-fluorophenoxy)phenyl]-1-oxa-4,9-diazaspiro[5.5]undecane] | 8.25 | 6.90 | 7.10 | 6.3
6 | Fc1cccc(Oc2ccc(F)c(N3CCC4(CC3)CNCCO4)c2)c1 [Example 10, 9-[2-fluoro-5-(3-fluorophenoxy)phenyl]-1-oxa-4,9-diazaspiro[5.5]undecane] | 7.56 | 6.07 | 5.32 | 5.6
7 | CN1CCCNCC12CCN(c1nc(Oc3cccc(F)c3)cc(C(F)(F)F)n1)CC2 [Example 77, 3-[4-(3-fluorophenoxy)-6-(trifluoromethyl)pyrimidin-2-yl]-7-methyl-3,7,11-triazaspiro[5.6]dodecane] | 8.08 | 6.33 | 5.30 | 
8 | Cl.Fc1cccc(Oc2cc(C(F)(F)F)nc(N3CCC4(CC3)COCCN4)n2)c1 [Example 78, 9-[4-(3-fluorophenoxy)-6-(trifluoromethyl)pyrimidin-2-yl]-4-oxa-1,9-diazaspiro[5.5]undecane hydrochloride] | 7.94 | 7.32 | 5.17 | 
9 | Fc1cccc(Oc2cc(F)c(F)cc2N2CCCC3(CCNCC3)C2)c1 [Example 80, 2-[4,5-difluoro-2-(3-fluorophenoxy)phenyl]-2,9-diazaspiro[5.5]undecane] | 6.64 | 5.84 | 6.49 | 
10 | Fc1cccc(Oc2cc(F)c(F)cc2N2CCCC3(CCCNC3)C2)c1 (stereo not drawn) [Example 81, 2-[4,5-difluoro-2-(3-fluorophenoxy)phenyl]-2,8-diazaspiro[5.5]undecane] | 7.18 | 6.25 | 6.71 | 
11 | Fc1cccc(Oc2cc(F)c(F)cc2N2CCC3(CNCCC34OCCO4)C2)c1 (stereo not drawn) [Example 85, 8-[4,5-difluoro-2-(3-fluorophenoxy)phenyl]-1,4-dioxa-8,12-diazadispiro[4.0.4^6.4^5]tetradecane] | 6.62 | 5.81 | 6.35 | 
12 | O=C1CCNCC12CCN(c1cc(F)c(F)cc1Oc1cccc(F)c1)C2 (stereo not drawn) [Example 86, 2-[4,5-difluoro-2-(3-fluorophenoxy)phenyl]-2,7-diazaspiro[4.5]decan-10-one] | 6.87 | 5.81 | 5.65 | 
13 | Cl.O=C1CCNCC12CCN(c1nc(Oc3cccc(F)c3)cc(C(F)(F)F)n1)C2 (stereo not drawn) [Example 88, 2-[4-(3-fluorophenoxy)-6-(trifluoromethyl)pyrimidin-2-yl]-2,7-diazaspiro[4.5]decan-10-one hydrochloride] | 8.15 | 6.55 | 4.48 | 
14 | Cl.Fc1cccc(Oc2cc(F)c(F)cc2N2CCC3(CCNCC34OCCO4)C2)c1 (stereo not drawn) [Example 94, 8-[4,5-difluoro-2-(3-fluorophenoxy)phenyl]-1,4-dioxa-8,13-diazadispiro[4.0.4^6.4^5]tetradecane hydrochloride] | 8.69 | 7.11 | 7.14 | 
15 | Fc1cccc(Oc2cc(C(F)(F)F)nc(N3CC4(CNCCO4)C3)n2)c1 [Example 102, 2-[4-(3-fluorophenoxy)-6-(trifluoromethyl)pyrimidin-2-yl]-5-oxa-2,8-diazaspiro[3.5]nonane] | 8.00 | 6.22 | 4.00 | 
